ChEMBL document CHEMBL1201862, “PubChem BioAssay data set” (2004)
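Five compound concentrations were applied to cells in 96-well plates for 48 hours; endpoints were derived by simple linear interpolation of the resulting dose-response curve. GI50 = concentration required for 50% inhibition of growth.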 Active and inactive are the calls of the source. No stated cut-off is given here; in the data, active = GI50 up to about 1.1 µM and inactive = higher.

How the values were obtained:
Assay in all cases: NCI anticancer screen, dose series, 48 h
[1] = system: A549
[2] = system: CCRF-CEM
[3] = system: EKVX
[4] = system: HCC 2998
[5] = system: HL-60
[6] = system: Hs-578T
[7] = system: KM12
[8] = system: LOX IMVI
[9] = system: MDA-MB-231
[10] = system: NCI-H226
[11] = system: NCI/ADR-RES
[12] = system: OVCAR-4
[13] = system: PC-3
[14] = system: SF-268
[15] = system: SF-295
[16] = system: SK-MEL-5
[17] = system: SK-OV-3
[18] = system: SNB-75
[19] = system: SW-620
[20] = system: UACC-257

Measured: GI50

CC1C(C)(C)C23CC12C1(OCCO1)C3Br (stereo not given)
inactive: [1] > 100 µM | [2] > 100 µM | [3] > 100 µM | [4] > 100 µM | [5] > 100 µM | [6] > 100 µM | [7] > 100 µM | [8] > 100 µM | [9] > 100 µM | [10] > 100 µM | [11] > 100 µM | [12] > 100 µM | [13] > 100 µM | [14] > 100 µM | [15] > 100 µM | [16] > 100 µM | [17] > 100 µM | [18] > 100 µM | [19] > 100 µM | [20] > 100 µM
